Measurements taken from PubChem BioAssay AID330 (DTP/NCI, 2004).
Several values for one entry are separate records, joined by “and”; a condition that tells them apart may be missing. Equal values may be shown once. Toxic doses and inconclusive results are not listed.

System: P388 leukemia ip, CD2F1 mice, survival T/C
Assay: NCI In Vivo Anticancer Drug Screen. Data for tumor model P388 Leukemia (intraperitoneal) in CD2F1 (CDF1) mice
Details: endpoint: median survival time, higher = longer survival
Outline: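 Mice carrying the transplanted tumor received test compound or vehicle. Survival was recorded in each group, and the value is the treated-group measurement divided by that of the vehicle-treated control group.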

[1] = dose: 1.25 mg/kg/injection, schedule: Q01DX009 (ip), vehicle: saline
[2] = dose: 1.56 mg/kg/injection, schedule: Q01DX009 (ip), vehicle: saline with Tween-80
[3] = dose: 2.5 mg/kg/injection, schedule: Q01DX009 (ip), vehicle: saline
[4] = dose: 3.12 mg/kg/injection, schedule: Q01DX009 (ip), vehicle: saline with Tween-80
[5] = dose: 6.25 mg/kg/injection, schedule: Q01DX009 (ip), vehicle: saline with Tween-80
[6] = dose: 50.0 mg/kg/injection, schedule: Q01DX005 (ip), vehicle: saline with Tween-80
[7] = dose: 100.0 mg/kg/injection, schedule: Q01DX005 (ip), vehicle: saline with Tween-80
[8] = dose: 200.0 mg/kg/injection, schedule: Q01DX005 (ip), vehicle: saline with Tween-80
[9] = dose: 60.0 mg/kg/injection, schedule: Q01DX005 (ip), vehicle: saline
[10] = dose: 120.0 mg/kg/injection, schedule: Q01DX005 (ip), vehicle: saline
[11] = dose: 240.0 mg/kg/injection, schedule: Q01DX005 (ip), vehicle: saline
[12] = dose: 60.0 mg/kg/injection, schedule: Q01DX005 (ip), vehicle: saline with Tween-80
[13] = dose: 120.0 mg/kg/injection, schedule: Q01DX005 (ip), vehicle: saline with Tween-80
[14] = dose: 240.0 mg/kg/injection, schedule: Q01DX005 (ip), vehicle: saline with Tween-80
[15] = dose: 12.5 mg/kg/injection, schedule: Q01DX009 (ip), vehicle: saline with Tween-80
[16] = dose: 100.0 mg/kg/injection, schedule: Q01DX009 (ip), vehicle: saline with Tween-80
[17] = dose: 200.0 mg/kg/injection, schedule: Q01DX009 (ip), vehicle: saline with Tween-80

In the case of `NC(=O)c1ccc(N)nc1`, the T/C (dose: 0.63 mg/kg/injection, schedule: Q01DX009 (ip), vehicle: saline) is reported as 104 % of control, the T/C [1] is reported as 100 % of control and the T/C [2] is reported as 110 % of control. For the same compound, the T/C [3] was 121 % of control, the T/C [4] was 122 % of control and the T/C [5] was 117 % of control and 95 % of control. The T/C (dose: 6.25 mg/kg/injection, schedule: Q04DX003 (ip), vehicle: saline with Tween-80) was 109 % of control.
In the case of `CC(C)(C)c1cc(CCCCCCCC2(CCCCCCCc3cc(C(C)(C)C)cc(C(C)(C)C)c3)OC(COCCOCCOCCCC#N)C(COCCOCCOCCCC#N)O2)cc(C(C)(C)C)c1` (stereo unspecified), the T/C (dose: 25.0 mg/kg/injection, schedule: Q01DX005 (ip), vehicle: saline with Tween-80) is reported as 97 % of control, the T/C [6] is reported as 95 % of control and the T/C [7] is reported as 113 % of control. For the same compound, the T/C [8] was 100 % of control.
With `COc1cccc2c1C(=O)c1c(O)c3c(c(O)c1C2=O)C[C@@](O)(/C(C)=N/NC(=O)c1ccc(-c2ccccc2)cc1)C[C@@H]3OC1CC(N)C(O)C(C)O1` (stereo partly specified) the T/C (dose: 0.12 mg/kg/injection, schedule: Q01DX009 (ip), vehicle: water) was 107 % of control, the T/C (dose: 0.5 mg/kg/injection, schedule: Q01DX009 (ip), vehicle: water) was 151 % of control and the T/C (dose: 1.0 mg/kg/injection, schedule: Q01DX009 (ip), vehicle: water) was 157 % of control. The T/C (dose: 2.0 mg/kg/injection, schedule: Q01DX009 (ip), vehicle: water) was 163 % of control and 169 % of control, the T/C (dose: 3.13 mg/kg/injection, schedule: Q01DX009 (ip), vehicle: water) was 192 % of control and the T/C (dose: 4.0 mg/kg/injection, schedule: Q01DX009 (ip), vehicle: water) was 190 % of control. For the same compound, the T/C (dose: 6.0 mg/kg/injection, schedule: Q04DX003 (ip), vehicle: water) was 106 % of control, the T/C (dose: 6.25 mg/kg/injection, schedule: Q01DX001 (ip), vehicle: water) was 151 % of control and the T/C (dose: 6.25 mg/kg/injection, schedule: Q01DX009 (ip), vehicle: water) was 109 % of control. The T/C (dose: 8.0 mg/kg/injection, schedule: Q01DX009 (ip), vehicle: water) was 98 % of control and 91 % of control, the T/C (dose: 12.5 mg/kg/injection, schedule: Q01DX001 (ip), vehicle: water) was 163 % of control and the T/C (dose: 24.0 mg/kg/injection, schedule: Q04DX003 (ip), vehicle: water) was 165 % of control. For the same compound, the T/C (dose: 25.0 mg/kg/injection, schedule: Q01DX001 (ip), vehicle: water) was 116 % of control and the T/C (dose: 96.0 mg/kg/injection, schedule: Q04DX003 (ip), vehicle: water) was 98 % of control.
With `CC1SC(C)C1=O` (stereo unspecified) the T/C [9] was 109 % of control, the T/C [10] was 107 % of control and the T/C [11] was 100 % of control.
In the case of `NC(=O)c1cc([N+](=O)[O-])ccc1N=NN(CCCl)Cc1ccccc1`, the T/C (dose: 100.0 mg/kg/injection, schedule: Q04DX003 (ip), vehicle: Klucel (hydroxypropylcellulose) (HPC)) is reported as 111 % of control, the T/C (dose: 200.0 mg/kg/injection, schedule: Q04DX003 (ip), vehicle: Klucel (hydroxypropylcellulose) (HPC)) is reported as 122 % of control and the T/C (dose: 400.0 mg/kg/injection, schedule: Q04DX003 (ip), vehicle: Klucel (hydroxypropylcellulose) (HPC)) is reported as 162 % of control.
With `CC1(c2ccccc2)OC(=O)C=CC1=O` (stereo unspecified) the T/C [12] was 110 % of control, the T/C [13] was 104 % of control and the T/C [14] was 108 % of control.
With `NC(CCC(=O)O)C(=O)Nc1ccc(N(CCCl)CCCl)cc1` (stereo unspecified) the T/C [2] was 173 % of control, the T/C [4] was 175 % of control and the T/C [5] was 230 % of control. For the same compound, the T/C [15] was 92 % of control.
With `NN1C(=O)CC(c2cccc(Cl)c2)C1=O` (stereo unspecified) the T/C [12] was 92 % of control, the T/C [13] was 92 % of control and the T/C [14] was 92 % of control.
In the case of `C=CC12CN(C)C3C4COC(CC41)C1(C(=O)Nc4ccccc41)C32` (stereo unspecified), the T/C [1] is reported as 103 % of control, the T/C [3] is reported as 88 % of control and the T/C (dose: 5.0 mg/kg/injection, schedule: Q01DX009 (ip), vehicle: saline) is reported as 95 % of control. For the same compound, the T/C (dose: 7.5 mg/kg/injection, schedule: Q01DX005 (ip), vehicle: Klucel (hydroxypropylcellulose) (HPC)) was 98 % of control, the T/C (dose: 10.0 mg/kg/injection, schedule: Q01DX009 (ip), vehicle: saline) was 106 % of control and the T/C (dose: 15.0 mg/kg/injection, schedule: Q01DX005 (ip), vehicle: Klucel (hydroxypropylcellulose) (HPC)) was 95 % of control. The T/C (dose: 30.0 mg/kg/injection, schedule: Q01DX005 (ip), vehicle: Klucel (hydroxypropylcellulose) (HPC)) was 98 % of control and the T/C (dose: 60.0 mg/kg/injection, schedule: Q01DX005 (ip), vehicle: Klucel (hydroxypropylcellulose) (HPC)) was 102 % of control.
`CC1=C(C)C2C3C(=O)NC(=O)C3C1C1C3C(=O)NC(=O)C3C21` (stereo unspecified) was tested, and the T/C [9] was 101 % of control, the T/C [10] was 101 % of control and the T/C [11] was 100 % of control.
`O=C(CCc1n[nH]c(=S)o1)Nc1ccccc1` was tested, and the T/C [6] was 102 % of control, the T/C [7] was 95 % of control and the T/C [8] was 96 % of control.
`CCOC(=O)COc1ccc(C2=C(c3ccccc3)C(C)(C)Oc3cc(OC)ccc32)cc1[N+](=O)[O-]` was tested, and the T/C [6] was 97 % of control, the T/C [7] was 93 % of control and the T/C [8] was 86 % of control.
`Cc1ccccc1SSCCN` was tested, and the T/C (dose: 50.0 mg/kg/injection, schedule: Q01DX005 (ip), vehicle: Klucel (hydroxypropylcellulose) (HPC)) was 103 % of control and the T/C (dose: 100.0 mg/kg/injection, schedule: Q01DX005 (ip), vehicle: Klucel (hydroxypropylcellulose) (HPC)) was 103 % of control.
With `CC(C)NCC(O)COc1cccc2ccccc12` (stereo unspecified) the T/C (dose: 4.0 mg/kg/injection, schedule: Q01DX009 (ip), vehicle: Klucel (hydroxypropylcellulose) (HPC)) was 97 % of control, the T/C (dose: 8.0 mg/kg/injection, schedule: Q01DX009 (ip), vehicle: Klucel (hydroxypropylcellulose) (HPC)) was 98 % of control and the T/C (dose: 16.0 mg/kg/injection, schedule: Q01DX009 (ip), vehicle: Klucel (hydroxypropylcellulose) (HPC)) was 100 % of control. The T/C (dose: 32.0 mg/kg/injection, schedule: Q01DX009 (ip), vehicle: Klucel (hydroxypropylcellulose) (HPC)) was 95 % of control and the T/C (dose: 64.0 mg/kg/injection, schedule: Q01DX009 (ip), vehicle: Klucel (hydroxypropylcellulose) (HPC)) was 113 % of control.
With `O=P(OCC(Br)CBr)(OCC(Br)CBr)OCC(Br)CBr` (stereo unspecified) the T/C [16] was 112 % of control and 114 % of control, the T/C [17] was 106 % of control and 109 % of control and the T/C (dose: 400.0 mg/kg/injection, schedule: Q01DX009 (ip), vehicle: saline with Tween-80) was 103 % of control and 106 % of control. The T/C (dose: 800.0 mg/kg/injection, schedule: Q01DX009 (ip), vehicle: saline with Tween-80) was 109 % of control and 94 % of control.
`COc1cc2ccc3c[n+]4ccccc4cc3c2cc1OC` was tested, and the T/C (dose: 6.25 mg/kg/injection, schedule: Q01DX009 (ip), vehicle: Klucel (hydroxypropylcellulose) (HPC)) was 103 % of control and the T/C (dose: 12.5 mg/kg/injection, schedule: Q01DX009 (ip), vehicle: Klucel (hydroxypropylcellulose) (HPC)) was 108 % of control.
`CC(C)(C)c1ccc(OP(=S)(N/N=C/c2ccccc2O)Oc2ccc(C(C)(C)C)cc2)cc1` was tested, and the T/C [15] was 94 % of control, the T/C (dose: 25.0 mg/kg/injection, schedule: Q01DX009 (ip), vehicle: saline with Tween-80) was 88 % of control and the T/C (dose: 50.0 mg/kg/injection, schedule: Q01DX009 (ip), vehicle: saline with Tween-80) was 93 % of control and 95 % of control. The T/C [16] was 95 % of control and the T/C [17] was 95 % of control.
`CN(/N=C/c1ccc(Cl)cc1)P(=O)(N1CC1)N1CC1` was tested, and the T/C (dose: 6.25 mg/kg/injection, schedule: Q01DX005 (ip), vehicle: saline with Tween-80) was 116 % of control, the T/C (dose: 12.5 mg/kg/injection, schedule: Q01DX005 (ip), vehicle: saline with Tween-80) was 116 % of control and the T/C [6] was 171 % of control.
For `Nc1ccccc1/C=C/c1ccnc2ccccc12`, the T/C (dose: 12.5 mg/kg/injection, schedule: Q01DX001 (ip), vehicle: Klucel (hydroxypropylcellulose) (HPC)) was 101 % of control and 96 % of control, the T/C (dose: 25.0 mg/kg/injection, schedule: Q01DX001 (ip), vehicle: Klucel (hydroxypropylcellulose) (HPC)) was 100 % of control and 89 % of control and the T/C (dose: 50.0 mg/kg/injection, schedule: Q01DX001 (ip), vehicle: Klucel (hydroxypropylcellulose) (HPC)) was 91 % of control and 97 % of control. For the same compound, the T/C (dose: 100.0 mg/kg/injection, schedule: Q01DX001 (ip), vehicle: Klucel (hydroxypropylcellulose) (HPC)) was 87 % of control and 94 % of control.
With `OC(Cc1cccnc1)(c1ccccc1)c1ccccc1` the T/C (dose: 50.0 mg/kg/injection, schedule: Q01DX009 (ip), vehicle: Klucel (hydroxypropylcellulose) (HPC)) was 111 % of control, the T/C (dose: 100.0 mg/kg/injection, schedule: Q01DX009 (ip), vehicle: Klucel (hydroxypropylcellulose) (HPC)) was 109 % of control and the T/C (dose: 200.0 mg/kg/injection, schedule: Q01DX009 (ip), vehicle: Klucel (hydroxypropylcellulose) (HPC)) was 118 % of control.
